Laboratory results taken from PubChem BioAssay (NCI).
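Compound exposure: 48 hours, 5 concentrations, 96-well plates. TGI: concentration producing complete growth inhibition.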

Assays:
Experiment in all cases: growth of human tumour cells (NCI), 48 h
[1] = system: A549 NSCLC
[2] = system: NCI/ADR-RES ovarian
[3] = system: SW-620 colon
[4] = system: CCRF-CEM leukemia
[5] = system: LOX IMVI melanoma
[6] = system: IGROV1 ovarian
[7] = system: HL-60(TB) leukemia
[8] = system: MALME-3M melanoma
[9] = system: DU-145 prostate
[10] = system: U251 CNS
[11] = system: NCI-H460 lung
[12] = system: SF-295 CNS
[13] = system: UACC-257 melanoma
[14] = system: SK-MEL-28 melanoma
[15] = system: T-47D breast
[16] = system: MOLT-4 leukemia
[17] = system: NCI-H522 lung
[18] = system: OVCAR-8 ovarian
[19] = system: SNB-75 CNS
[20] = system: HS 578T breast
[21] = system: HCT-15 colon
[22] = system: HOP-92 NSCLC
[23] = system: CAKI-1 renal
[24] = system: M14 melanoma
[25] = system: SR leukemia
[26] = system: K-562 leukemia
[27] = system: ACHN renal
[28] = system: RXF 393 renal
[29] = system: NCI-H226 lung
[30] = system: OVCAR-3 ovarian
[31] = system: OVCAR-5 ovarian
[32] = system: RPMI-8226 leukemia
[33] = system: KM12 colon
[34] = system: MDA-MB-231 breast
[35] = system: SK-MEL-5 melanoma
[36] = system: SF-539 CNS
[37] = system: OVCAR-4 ovarian
[38] = system: SNB-19 CNS
[39] = system: HCC-2998 colon
[40] = system: SF-268 CNS
[41] = system: MDA-MB-435
[42] = system: A498 renal
[43] = system: TK-10 renal
[44] = system: BT-549 breast
[45] = system: HCT-116 colon
[46] = system: PC-3 prostate
[47] = system: 786-0 renal
[48] = system: UACC-62 melanoma
[49] = system: UO-31 renal
[50] = system: SN12C renal
[51] = system: SK-MEL-2 melanoma
[52] = system: MDA-N
[53] = system: COLO 205 colon
[54] = system: MCF7 breast
[55] = system: EKVX NSCLC
[56] = system: SK-OV-3 ovarian
[57] = system: HOP-62 NSCLC
[58] = system: HT29 colon
[59] = system: NCI-H23 lung

`COC(=O)c1ccccc1/C=C1\Cc2ccc3ccccc3c2C1C` (configuration not stated) was tested, and the TGI [1] was > 100 µM, the TGI [2] was > 100 µM and the TGI [3] was > 100 µM. For the same compound, the TGI [4] was > 100 µM, the TGI [5] was > 100 µM and the TGI [6] was > 100 µM. The TGI [7] was > 100 µM, the TGI [8] was > 100 µM and the TGI [9] was > 100 µM. The TGI [10] was > 100 µM, the TGI [11] was > 100 µM and the TGI [12] was > 100 µM. The TGI [13] was > 100 µM, the TGI [14] was > 100 µM and the TGI [15] was 69 µM. For the same compound, the TGI [16] was > 100 µM, the TGI [17] was > 100 µM and the TGI [18] was > 100 µM. For the same compound, the TGI [19] was > 100 µM, the TGI [20] was > 100 µM and the TGI [21] was > 100 µM. For the same compound, the TGI [22] was > 100 µM, the TGI [23] was > 100 µM and the TGI [24] was > 100 µM. The TGI [25] was > 100 µM, the TGI [26] was > 100 µM and the TGI [27] was > 100 µM. For the same compound, the TGI [28] was > 100 µM, the TGI [29] was > 100 µM and the TGI [30] was > 100 µM. For the same compound, the TGI [31] was > 100 µM, the TGI [32] was > 100 µM and the TGI [33] was > 100 µM. The TGI [34] was > 100 µM, the TGI [35] was 64.5 µM and the TGI [36] was > 100 µM. For the same compound, the TGI [37] was > 100 µM, the TGI [38] was > 100 µM and the TGI [39] was > 100 µM. The TGI [40] was > 100 µM, the TGI [41] was > 100 µM and the TGI [42] was > 100 µM. For the same compound, the TGI [43] was > 100 µM, the TGI [44] was > 100 µM and the TGI [45] was 46.1 µM. For the same compound, the TGI [46] was > 100 µM, the TGI [47] was > 100 µM and the TGI [48] was > 100 µM. For the same compound, the TGI [49] was > 100 µM, the TGI [50] was > 100 µM and the TGI [51] was > 100 µM. The TGI [52] was > 100 µM, the TGI [53] was > 100 µM and the TGI [54] was > 100 µM. The TGI [55] was > 100 µM.

In the case of `Cc1cc(/N=C/c2ccc(Cl)cc2)n(-c2ccccc2)n1`, the TGI [1] is reported as > 100 µM, the TGI [2] is reported as > 100 µM and the TGI [3] is reported as > 100 µM. For the same compound, the TGI [4] was > 100 µM, the TGI [5] was > 100 µM and the TGI [6] was > 100 µM. The TGI [7] was 91.5 µM, the TGI [8] was > 100 µM and the TGI [9] was > 100 µM. The TGI [10] was > 100 µM, the TGI [11] was > 100 µM and the TGI [12] was > 100 µM. For the same compound, the TGI [13] was > 100 µM, the TGI [14] was > 100 µM and the TGI [15] was 79.4 µM. The TGI [16] was > 100 µM, the TGI [17] was > 100 µM and the TGI [18] was > 100 µM. The TGI [19] was > 100 µM, the TGI [20] was > 100 µM and the TGI [21] was > 100 µM. The TGI [22] was > 100 µM, the TGI [23] was > 100 µM and the TGI [24] was > 100 µM. The TGI [25] was > 100 µM, the TGI [26] was > 100 µM and the TGI [27] was > 100 µM. The TGI [28] was 77.1 µM, the TGI [29] was > 100 µM and the TGI [30] was > 100 µM. The TGI [31] was > 100 µM, the TGI [32] was > 100 µM and the TGI [33] was > 100 µM. For the same compound, the TGI [34] was > 100 µM, the TGI [35] was 68.8 µM and the TGI [36] was > 100 µM. The TGI [37] was > 100 µM, the TGI [38] was > 100 µM and the TGI [39] was 71 µM. The TGI [56] was > 100 µM, the TGI [57] was > 100 µM and the TGI [40] was > 100 µM. The TGI [41] was > 100 µM, the TGI [42] was 79.7 µM and the TGI [43] was > 100 µM. The TGI [44] was > 100 µM, the TGI [45] was > 100 µM and the TGI [46] was > 100 µM. For the same compound, the TGI [47] was > 100 µM, the TGI [58] was > 100 µM and the TGI [48] was > 100 µM. For the same compound, the TGI [49] was > 100 µM, the TGI [50] was > 100 µM and the TGI [51] was > 100 µM. For the same compound, the TGI [52] was > 100 µM, the TGI [53] was > 100 µM and the TGI [54] was > 100 µM. For the same compound, the TGI [59] was > 100 µM and the TGI [55] was > 100 µM.

`CC(=O)O[C@H]1C[C@H]2[C@@H]([C@H](OC(C)=O)C[C@@H]3CC4(CC[C@@]32C)OOC2(CCCCC2)OO4)[C@@H]2CC[C@H]([C@H](C)CCC(=O)O)[C@@]12C` showed a TGI [1] of 12.8 µM, a TGI [2] of 19 µM and a TGI [3] of 30 µM. It also gave a TGI [4] of 15.5 µM, a TGI [5] of 15.8 µM and a TGI [6] of 3.9 µM. For the same compound, the TGI [7] was 15.1 µM, the TGI [8] was 34.3 µM and the TGI [9] was 31.6 µM. The TGI [10] was 17.7 µM, the TGI [11] was 21.6 µM and the TGI [12] was 19.1 µM. It also gave a TGI [13] of 25 µM, a TGI [14] of 24 µM and a TGI [15] of 45.7 µM. It also gave a TGI [16] of 51.6 µM, a TGI [17] of 9.36 µM and a TGI [18] of 16.1 µM. For the same compound, the TGI [19] was 14.8 µM, the TGI [20] was 9.32 µM and the TGI [21] was 17 µM. For the same compound, the TGI [22] was 7.1 µM, the TGI [23] was 25.3 µM and the TGI [24] was 26.9 µM. The TGI [25] was 8.3 µM, the TGI [26] was 23.7 µM and the TGI [27] was 20.3 µM. The TGI [28] was 31.3 µM, the TGI [29] was 31.6 µM and the TGI [30] was 37.2 µM. It also gave a TGI [31] of 29.8 µM, a TGI [32] of 20.7 µM and a TGI [33] of 17.1 µM. For the same compound, the TGI [34] was 34.1 µM, the TGI [35] was 22.6 µM and the TGI [36] was 20.3 µM. For the same compound, the TGI [37] was 9.38 µM, the TGI [38] was 25.4 µM and the TGI [39] was 25 µM. The TGI [56] was 26.9 µM, the TGI [57] was 5.93 µM and the TGI [40] was 26.8 µM. It also gave a TGI [41] of 18.9 µM, a TGI [42] of 27.1 µM and a TGI [43] of 27 µM. For the same compound, the TGI [44] was 17.3 µM, the TGI [45] was 19.2 µM and the TGI [46] was 22.2 µM. It also gave a TGI [47] of 24 µM, a TGI [58] of 25.3 µM and a TGI [49] of 11 µM. For the same compound, the TGI [50] was 20.7 µM, the TGI [51] was 26.5 µM and the TGI [52] was 26.9 µM. For the same compound, the TGI [53] was 14 µM, the TGI [54] was 22.1 µM and the TGI [59] was 16.6 µM. It also gave a TGI [55] of 4.76 µM.
